According to patent publication US5556886A, “HIV-inhibiting benzeneacetamide derivatives” (Janssen Pharmaceutica N.V., priority 1990, dated 1996):
In brackets after ≈: the same amount, converted by molar mass.

Tests used:
HIV-1 = test: in-vitro anti-HIV assay: inhibition of HIV-induced cytopathic effect in MT-4 cells (MTT); format: cell-based; details: for SI (selectivity index, ratio of CD50 to ED50): CD50/ED50, MT-4 cells; for EC50: Human immunodeficiency virus 1, MT4, HIV-infected MT-4 cells, cytopathic effect, MTT, 540 nm, read-out: ED50 (dose achieving 50% protection)
Method: (§1) A rapid, sensitive and automated assay procedure was used for the in-vitro evaluation of anti-HIV agents. An […] T4-cell line, MT-4, which was previously shown (Koyanagi et al., Int. J. Cancer, 36, 445-451, 1985) to be highly susceptible to and permissive for HIV infection, served as the target cell line. Inhibition of the HIV-induced cytopathic effect was used as the end point. The viability of both HIV-and mock-infected cells was assessed spectrophotometrically via the in-situ reduction of 3-(4,5-dimethylthiazol-2-yl)-2,5-diphenyltetrazolium bromide (MTT). The 50% cytotoxic dose (CD50 in μg/ml) was defined as the concentration of compound that reduced the absorbance of the mock-infectedcontrol sample by 50%. The percent protection achieved by the compound in HIV-infected cells was calculated by the following formula: [formula] whereby (ODT)HIV is the optical density measured with a given concentration of the test compound in HIV-infected cells; (ODC)HIV is the optical density measured for the control untreated HIV-infected cells; (ODC)MOCK is the optical density measured for the control untreated mock-infected cells; all optical density values were determined at 540 nm. The dose achieving 50% protection according to the above formula was defined as the 50% effective dose (ED50 in μg/ml). The ratio of CD50 to ED50 was defined as the selectivity index (SI).

in vitro = format: cell-based; details: human, mt-4 cells
Method: as §1

Compound	SI (selectivity index, ratio of CD50 to ED50) (HIV-1)	EC50 (HIV-1) [mg/L]	CC50 (in vitro) [mg/L]
Cc1ccc([N+](=O)[O-])c(NC(C(N)=O)c2c(Cl)cccc2Cl)c1 (single isomer, unassigned) [Compound 29, (-)-α-[(5-methyl-2-nitrophenyl)amino]-2,6-dichlorobenzeneacetamide]	~ 1550	0.0032 (≈ 0.00903 µM)	5 (≈ 14.1 µM)
Cc1cc(NC(C(N)=O)c2c(Cl)ccc(Cl)c2Cl)c([N+](=O)[O-])cc1C (stereo not drawn) [Compound 28]	~ 140	0.07 (≈ 0.174 µM)	10 (≈ 24.8 µM)
CC(=O)c1ccccc1NC(C(N)=O)c1c(Cl)cccc1Cl (racemic) [Compound 22, (±)-α[(2-acetylphenyl)amino]-2,6-dichlorobenzeneacetamide]	~ 2700	0.013 (≈ 0.0386 µM)	35 (≈ 104 µM)
Cc1cc(NC(C(N)=O)c2c(Cl)cccc2Cl)c([N+](=O)[O-])cc1C (stereo not drawn) [Compound 24]	~ 2100	0.077 (≈ 0.209 µM)	160 (≈ 435 µM)
CC(=O)c1ccc(Cl)cc1NC(C(N)=O)c1c(Cl)cccc1Cl (stereo not drawn) [Compound 30, α-[(2-acetyl-5-chlorophenyl)amino]-2,6-dichlorobenzeneacetamide]	~ 18000	0.011 (≈ 0.0296 µM)	200 (≈ 538 µM)
Cc1cc(C)c([N+](=O)[O-])c(NC(C(N)=O)c2c(Cl)cccc2Cl)c1 (stereo not drawn) [Compound 27]	~ 100	0.049 (≈ 0.133 µM)	5 (≈ 13.6 µM)
NC(=O)C(Nc1ccccc1[N+](=O)[O-])c1c(Cl)cccc1Cl (stereo not drawn) [Compound 15, 2-(2,6-dichlorophenyl)-2-[(2-nitrophenyl)amino]acetamide]	~ 1000	0.02 (≈ 0.0588 µM)	20 (≈ 58.8 µM)
NC(=O)C(Nc1ccccc1[N+](=O)[O-])c1c(Cl)cccc1Cl (single isomer, unassigned; (-)) [Compound 25, (-)-2,6-dichloro-α-[(2-nitrophenyl)amino]benzeneacetamide]	~ 1600	0.018 (≈ 0.0529 µM)	29 (≈ 85.3 µM)
Cc1ccc([N+](=O)[O-])c(NC(C(N)=O)c2c(Cl)cccc2Cl)c1 (stereo not drawn) [Compound 26]	≥ 4400	0.057 (≈ 0.161 µM)	> 250
CC(=O)c1ccccc1NC(C(N)=O)c1c(Cl)cccc1Cl (single isomer, unassigned) [Compound 23, (-)-α-[(2-acetylphenyl)amino]-2,6-dichlorobenzeneacetamide]	~ 3000	0.0066 (≈ 0.0196 µM)	20 (≈ 59.3 µM)
